In brackets after ≈: the same amount, converted by molar mass. Where two headings read alike, the source gives them in different places.
Tests used:
[1] = solubility in an aqueous medium at pH 1; type: physicochemical
[2] = prior-art method; cited from earlier work

solubility ([1]; read-out: solubility)	solubility ([1]; read-out: solubility in an aqueous medium)	SMILES	stability [2]
6 mg/mL	–	Cn1c(=NN)sc2cc(S(=O)(=O)O)ccc21 [MBTH sulfonate, 3-methyl-2-(sulfonyl)-benzothiazolonehydrazone]	–
–	48 mg/mL (≈ 268 mM)	Cn1c(=NN)sc2ccccc21 [MBTH, 3-methylbenzothiazolonehydrazone]	low stability

From US4101381A, “Method and reagent for the determination of substances forming hydrogen peroxide” (Boehringer Mannheim GmbH, priority 1976, dated 1978)
